# Results: patent publication US8207345B2, “Tetrahydroquinolines for use as modulators of the mitotic motor protein Eg5” (Merck Patent GmbH, priority 2005, dated 2012)
# Test system: cells
# Assay: cell cycle effect (G2/M), appended experiments
# Assay type: cell-based
compound,measurement,value
N=C(N)c1ccc(OCCCCCOc2ccc(C(=N)N)cc2)cc1 [pentamidine],maintain cells in the G2/M cell cycle,maintain cells in the G2/M cell cycle
